Earlier results, collected in patent publication EP0839024B1, “MONENSIN FORMULATIONS” (Elli Lilly & Co.(NZ)Limited, priority 1995, dated 1997).

Columns and labels:
[1] = as indicated in EP 0,139,595 (monensin and its sodium salt) and US Patent 3,715,372 (lasalocid); cited from earlier work
[2] = Example 1 of EP 0,139,595: 250 g mycelium containing 10% monensin, 1250 cc propylene glycol, room temperature, 2 hours, ultrasound; cited from earlier work

Structure (SMILES)	solubility in water [1]	monensin found in solution in propylene glycol [2]
CC[C@@H](C(=O)[C@@H](C)[C@@H](O)[C@H](C)CCc1ccc(C)c(O)c1C(=O)O)[C@H]1O[C@](CC)([C@H]2CC[C@](O)(CC)[C@H](C)O2)C[C@@H]1C [lasalocid]	completely insoluble	
CC[C@@]1([C@@H]2O[C@@H]([C@H]3O[C@@](O)(CO)[C@H](C)C[C@@H]3C)C[C@@H]2C)CC[C@H]([C@]2(C)CC[C@]3(C[C@H](O)[C@@H](C)[C@@H]([C@@H](C)[C@@H](OC)[C@H](C)C(=O)O)O3)O2)O1 [monensin]		50%
